Measurements as given in ChEMBL document CHEMBL1201862, “PubChem BioAssay data set” (2004).
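Following 48 hours of exposure in 96-well plates, responses at five concentrations were used to interpolate endpoints linearly. GI50 is the concentration that inhibits growth by half.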 The source made the active and inactive calls. No stated cut-off is given here; in the data, active = GI50 up to about 1.1 µM and inactive = higher.

Columns and labels:
Test in all cases: inhibition of tumour cell growth, NCI panel, 48 h
MCF7 = tested on: MCF7
SK-OV-3 = tested on: SK-OV-3
MDA-MB-435 = tested on: MDA-MB-435
HT-29 = tested on: HT-29
NCI/ADR-RES = tested on: NCI/ADR-RES
NCI-H460 = tested on: NCI-H460
SNB-19 = tested on: SNB-19
MDA-N = tested on: MDA-N
786-0 = tested on: 786-0
OVCAR-3 = tested on: OVCAR-3
HCC 2998 = tested on: HCC 2998
SR = tested on: SR
OVCAR-4 = tested on: OVCAR-4
UACC-62 = tested on: UACC-62
HCT-15 = tested on: HCT-15
EKVX = tested on: EKVX
RPMI-8226 = tested on: RPMI-8226
MOLT-4 = tested on: MOLT-4
HL-60 = tested on: HL-60

| Structure (SMILES) | GI50 (MCF7) | GI50 (SK-OV-3) | GI50 (MDA-MB-435) | GI50 (HT-29) | GI50 (NCI/ADR-RES) | GI50 (NCI-H460) | GI50 (SNB-19) | GI50 (MDA-N) | GI50 (786-0) | GI50 (OVCAR-3) | GI50 (HCC 2998) | GI50 (SR) | GI50 (OVCAR-4) | GI50 (UACC-62) | GI50 (HCT-15) [µM] | GI50 (EKVX) | GI50 (RPMI-8226) | GI50 (MOLT-4) | GI50 (HL-60) |
| --- | --- | --- | --- | --- | --- | --- | --- | --- | --- | --- | --- | --- | --- | --- | --- | --- | --- | --- | --- |
| Clc1cccc(-c2nc3cccc4c3n2Cc2ncccc2-4)c1 | > 100 µM (inactive) | 96.8 µM (inactive) | > 100 µM (inactive) | > 100 µM (inactive) | > 100 µM (inactive) | 6.67 µM (inactive) | 23.9 µM (inactive) | > 100 µM (inactive) | 17.6 µM (inactive) | 32.1 µM (inactive) | > 100 µM (inactive) | 24 µM (inactive) | 36 µM (inactive) | 56.6 µM (inactive) | > 100 | > 100 µM (inactive) | – | – | – |
| CN(C)CC1CCC/C(=C\c2ccc(N(C)C)cc2)C1=O (centres undefined) | 1.02 µM (active) | 17.8 µM (inactive) | 5.4 µM (inactive) | 2 µM (inactive) | 25.9 µM (inactive) | 12 µM (inactive) | 17.7 µM (inactive) | 7.28 µM (inactive) | 3.34 µM (inactive) | 2.84 µM (inactive) | 15.9 µM (inactive) | – | 2.15 µM (inactive) | 15.8 µM (inactive) | 4.86 | 16.7 µM (inactive) | > 100 µM (inactive) | 4.97 µM (inactive) | > 100 µM (inactive) |
| CCN(CC)CCNc1ccc([N+](=O)[O-])c2nc3ccccc3c(N)c12 | 0.364 µM (active) | 0.726 µM (active) | 0.481 µM (active) | 0.359 µM (active) | 0.401 µM (active) | 0.291 µM (active) | 0.615 µM (active) | 0.504 µM (active) | 0.361 µM (active) | 0.701 µM (active) | – | 0.243 µM (active) | 0.422 µM (active) | 1.01 µM (active) | 0.41 | 0.428 µM (active) | 0.311 µM (active) | 0.223 µM (active) | 0.297 µM (active) |
| COC(=O)[C@H]1COC(=O)N1 | > 100 µM (inactive) | > 100 µM (inactive) | > 100 µM (inactive) | > 100 µM (inactive) | > 100 µM (inactive) | > 100 µM (inactive) | > 100 µM (inactive) | > 100 µM (inactive) | > 100 µM (inactive) | > 100 µM (inactive) | > 100 µM (inactive) | – | > 100 µM (inactive) | > 100 µM (inactive) | > 100 | > 100 µM (inactive) | – | > 100 µM (inactive) | 89.7 µM (inactive) |
| CC(Cl)CN1c2ccccc2Sc2ccc(Cl)cc21 (centres undefined) | > 10 µM (inactive) | > 10 µM (inactive) | > 10 µM (inactive) | > 10 µM (inactive) | > 10 µM (inactive) | > 10 µM (inactive) | > 10 µM (inactive) | > 10 µM (inactive) | > 10 µM (inactive) | > 10 µM (inactive) | > 10 µM (inactive) | – | > 10 µM (inactive) | > 10 µM (inactive) | > 10 | > 10 µM (inactive) | > 10 µM (inactive) | > 10 µM (inactive) | > 10 µM (inactive) |
| ClCc1c(-c2ccccc2)nn(-c2ccccc2)c1CCl | 8.2 µM (inactive) | – | 1.78 µM (inactive) | 9.75 µM (inactive) | 29.4 µM (inactive) | – | 18.6 µM (inactive) | 10.7 µM (inactive) | 9.59 µM (inactive) | 13.5 µM (inactive) | 13.9 µM (inactive) | 2.33 µM (inactive) | 1.65 µM (inactive) | 7.18 µM (inactive) | 12.2 | – | 2.26 µM (inactive) | – | 3.14 µM (inactive) |
| CC(C)C1CCC(=O)CC1CCCCC1CC(=O)CC1O[Si](C)(C)C(C)(C)C (centres undefined) | 4.12 µM (inactive) | 11.9 µM (inactive) | 2.95 µM (inactive) | 3 µM (inactive) | 4.25 µM (inactive) | 7.46 µM (inactive) | 3.98 µM (inactive) | 4.16 µM (inactive) | 3.89 µM (inactive) | 14.4 µM (inactive) | 7.03 µM (inactive) | – | 12.7 µM (inactive) | 4.45 µM (inactive) | 3.44 | 15.7 µM (inactive) | 1.95 µM (inactive) | 1.89 µM (inactive) | – |
| Nc1nc(Cl)cc(Nc2cc(Cl)cc(Cl)c2)n1 | 18.1 µM (inactive) | 19.5 µM (inactive) | 20.1 µM (inactive) | 17 µM (inactive) | 21 µM (inactive) | 18.2 µM (inactive) | 23.4 µM (inactive) | 23 µM (inactive) | 17.4 µM (inactive) | 22.8 µM (inactive) | 18.7 µM (inactive) | – | 21.7 µM (inactive) | 18.4 µM (inactive) | 20.7 | 21.3 µM (inactive) | 33 µM (inactive) | 22.3 µM (inactive) | – |
| CC(C)=CCC/C(C)=C/Cc1cc(/C=C/c2cc(O)c(CC=C(C)C)c(O)c2)cc(O)c1O [MAPPAIN] | 3.45 µM (inactive) | 8.87 µM (inactive) | 2.55 µM (inactive) | 4.18 µM (inactive) | 3.15 µM (inactive) | 2.68 µM (inactive) | 4.5 µM (inactive) | 2.41 µM (inactive) | 4.6 µM (inactive) | 1.99 µM (inactive) | 2.13 µM (inactive) | – | 1.94 µM (inactive) | 2.7 µM (inactive) | 3.05 | 2.96 µM (inactive) | 0.506 µM (active) | 1.93 µM (inactive) | 0.502 µM (active) |
